Key:
[1] = test system: LNCaP control-shRNA cells; assay: CEA-specific CTL lysis assay, LNCaP control-shRNA targets; settings: 10 μM, 48 hours, E:T 30:1, P<0.05
Experimental: (§1) At specific time points, cells were harvested and counted. Equal numbers of effector target cells from all treatment were plated with respective cytotoxic T-cells.

[2] = test system: PC-3 (AR−, HLA-A24) cells; assay: Cell proliferation and viability by trypan blue exclusion, PC-3; type: cell-based, human; settings: 10 μM
Experimental: Cells were harvested 24, 48, or 72 h after exposure, and the total number of adherent viable cells was determined by trypan blue exclusion. Viability was confirmed by 7AAD staining.

[3] = test system: LNCaP control-shRNA (AR+, HLA-A2) cells; settings: 10 μM; P<0.01
LNCaP cells [4] = assay: CEA- or PSA-specific CD8+ T-cell killing, LNCaP targets; type: cell-based, human; settings: 10 μM, 48 hours, P<0.01
LNCaP cells [5] = assay: CEA-specific CTL lysis assay, LNCaP targets; type: cell-based, human; settings: 10 μM, 48 hours, E:T 30:1, P<0.0001
Description: To evaluate the importance of DAPK1, DAPK1 siRNA was used to reduce the expression of DAPK1.

[6] = test system: MDA MB 231 (ER−AR−) cells; assay: TRAIL-mediated lysis assay, MDA MB 231 targets; type: cell-based, human; settings: 10 μM, 500 ng/ml KillerTRAIL, P<0.01
Experimental: The HLA-A2-restricted CEA-specific CTL recognizes the CEA peptide epitope […] (SEQ ID NO: 1) (CAP-1). […] The percentage of tumor lysis was calculated as follows: % tumor lysis=[(experimental cpm−spontaneous cpm)/(maximum cpm−spontaneous cpm)]×100.
OPG expression was inhibited in MDA MB 231 cells using siRNA duplexes targeting OPG sequences and control siRNA duplexes (Origene, Rockville, Md.). MDA-MB-231 cells were transfected with OPG or control siRNA according to the manufacturer's instructions. […] Forty-eight hours post siRNA transfection, the MDA MB 231 cells were also used as target cells in CEA-specific CTL and TRAIL-mediated lysis assays as described.

LNCaP cells [7] = assay: PSA-specific CD8+ T-cell killing, LNCaP targets; settings: 10 μM, 48 hours, E:T 30:1, P<0.01
Experimental: as §1

BT549 cells = settings: 10 μM, 48 hours
Experimental: After 48 hours, cells were harvested and stained with the following antibodies: HLA A2-PE-Cy7, MUC-1-FITC, CD54-BV421, CD95-FITC (BD Biosciences, San Jose, Calif.), CEA-APC (Miltenyi Biotec, Auburn, Calif.), TRAIL receptor 1 and TRAIL receptor 2 (R & D Systems, Minneapolis, Minn.). LIVE/DEAD Fixable Violet Dead Cell Stain (Life Technologies, Grand Island, N.Y.) was used to determine cell viability. Cells were incubated with the antibodies for 30 min at 4° C., acquired on a FACS Verse flow cytometer (Becton Dickinson, Franklin Lakes, N.J.), and analyzed using FlowJo software (TreeStar, Inc., Ashland, Oreg.).

[8] = test system: TRAMP-C2 mouse prostate carcinomas; settings: in vitro (Ardiani et al. 2013); cited from earlier work
NAIP = NAIP immunohistochemistry in LNCaP xenografts in nude mice; type: in vivo; settings: 10 mg/day, 7 days
Description: To examine the reduced expression of NAIP in vivo, either LNCaP or PC-3 cells were transplanted into […] nude mice (Charles River, Wilmington, Mass.) (s.c. in the right flank with 5×10^6 LNCaP or PC-3 prostate tumor cells). […] After 7 days of treatment, tumors were subjected to immunohistochemistry staining to detect the presence and intensity of NAIP expression. Specifically, NAIP expression was detected via immunohistochemistry using a rabbit polyclonal antibody to NAIP (Novus Bio, Littleton, Colo.) according to the manufacturer's instructions. Entire slides were digitally scanned by an Aperio ScanScope CS system and analyzed by Aperio ImageScope Viewer software (Aperio Technologies Inc., Vista, Calif.). Statistical analysis was performed using 3-7 murine tumors, each prepared as a complete stained tumor section. Positive tumor regions were determined using the Positive Pixel Count v9 algorithm. Negative controls included omission of primary antibody with PBS and matched rabbit isotype antibody. In all cases, necrotic areas of tumor were excluded from analysis.

BT549 (ER−AR+) cells = assay: Tumor cell proliferation, BT549; type: cell-based, human; settings: 10 μM; 48 or 72 hours; P<0.01 vs vehicle; to a greater degree than ZR75-1
Experimental: At the indicated time points, cells were harvested and the number of viable cells was determined by trypan blue exclusion.

LNCaP/AR(cs) cells [9] = assay: CEA- or PSA-specific CD8+ T-cell killing, LNCaP/AR(cs) targets; type: cell-based, human
LNCaP/AR(cs) cells [10] = assay: Cell proliferation and viability, LNCaP/AR(cs); type: cell-based, human
[11] = test system: MDA MB 231 (ER−AR−) cells; assay: Apoptosis PCR array (90 genes) in MDA MB 231 cells; type: cell-based, human; settings: 24 hours, qRT-PCR
Experimental: Total RNA was isolated from the cells using the RNeasy Extraction Kit (Qiagen, Valencia, Calif.). RNA was reverse-transcribed into cDNA using the Advantage RT-for-PCR Kit (Clontech, Mountain View, Calif.). cDNA (10 ng) was used in a quantitative real-time (RT) PCR reaction using probes specific for AR (Hs00901571_m1) and GAPDH (4326317E). AR mRNA expression level was calculated as expression relative to GAPDH. […] Total RNA was isolated from the cells using the RNeasy Extraction Kit. RNA was reverse-transcribed into cDNA using the RT^2 First Strand Kit (SA Biosciences, Valencia, Calif.). Relative mRNA expression levels of 90 genes involved in apoptosis were assessed using an apoptosis PCR array (SA Biosciences) per the manufacturer's instructions. RT-PCR was performed on the 7300 Real-Time PCR System (Applied Biosystems, Carlsbad, Calif.).
OPG is a decoy receptor for receptor activator of nuclear factor kappa-B ligand (RANKL) which inhibits RANKL activation of nuclear factor kappa-B induced apoptosis.

**Q.** With enzalutamide as the substance, how does the “sensitivity to CEA-specific CTL-mediated lysis” value [1] read?
**A.** significantly enhanced the sensitivity

**Q.** And the “viability of PC-3 cells” value ([2]; trypan blue exclusion after 3 days of drug exposure)?
**A.** Neither enzalutamide nor abiraterone affected the viability

**Q.** And the “proliferation of PC-3 cells” value ([2]; vs vehicle (DMSO))?
**A.** did not inhibit the proliferation

**Q.** What about the “proliferation of LNCaP control-shRNA” value [3] of the same substance?
**A.** significantly inhibited the proliferation

**Q.** What about the “sensitivity to T-cell killing” value (LNCaP cells [4]) of the same substance?
**A.** significantly improved the cells' sensitivity

**Q.** And the “sensitivity to CEA-specific CD8+ T-cell killing” value (LNCaP cells [5])?
**A.** significantly enhanced the sensitivity

**Q.** What about the “sensitivity to Trail-mediated lysis” value [6] of the same substance?
**A.** significantly improved the sensitivity

**Q.** And the “sensitivity to PSA-specific T-cell killing” value (LNCaP cells [7])?
**A.** significantly improved their sensitivity

**Q.** What about the “cell-surface markers with increased expression” value (BT549 cells; BT549 (ER−AR+)) of the same substance?
**A.** upregulated the expression of ICAM-1 as well as Trail receptors 1 and 2 and the tumor associated antigen CEA

**Q.** And the “CEA mean fluorescence intensity” value (BT549 cells; BT549)?
**A.** 3443

**Q.** And the CEA percent positivity (BT549 cells; BT549)?
**A.** 15.3%

**Q.** What about the “Fas mean fluorescence intensity” value (BT549 cells; BT549) of the same substance?
**A.** 566

**Q.** And the Fas percent positivity (BT549 cells; BT549)?
**A.** 15.8%

**Q.** What about the “HLA A2 mean fluorescence intensity” value (BT549 cells; BT549) of the same substance?
**A.** 2532

**Q.** And the “HLA A2 percent positivity” value (BT549 cells; BT549)?
**A.** 87.6%

**Q.** What about the “ICAM-1 mean fluorescence intensity” value (BT549 cells; BT549) of the same substance?
**A.** 6239

**Q.** What about the ICAM-1 percent positivity (BT549 cells; BT549) of the same substance?
**A.** 26.1%

**Q.** What about the “MUC-1 mean fluorescence intensity” value (BT549 cells; BT549) of the same substance?
**A.** 930

**Q.** What about the MUC-1 percent positivity (BT549 cells; BT549) of the same substance?
**A.** 25.5%

**Q.** What about the “Trail R1 mean fluorescence intensity” value (BT549 cells; BT549) of the same substance?
**A.** 562

**Q.** What about the “Trail R1 percent positivity” value (BT549 cells; BT549) of the same substance?
**A.** 23.6%

**Q.** What about the “sensitivity to gp70-specific CTL killing” value [8] of the same substance?
**A.** improve tumor cells' sensitivity

**Q.** And the “NAIP staining in LNCaP tumors vs untreated mice” value (NAIP; immunohistochemistry)?
**A.** much less intense staining

**Q.** What about the “decrease of overall population of tumor cells expressing NAIP” value (NAIP; LNCaP xenografts, P<0.01) of the same substance?
**A.** 1.5 fold

**Q.** And the “increase in tumor area that did not express NAIP” value (NAIP; LNCaP xenografts, P<0.01)?
**A.** 2.2 fold

**Q.** What about the “proliferation of BT549 cells” value (BT549 (ER−AR+) cells) of the same substance?
**A.** significantly inhibited the proliferation

**Q.** And the “sensitivity to T-cell killing” value (LNCaP/AR(cs) cells [9]; 10 μM, CEA- or PSA-specific CD8+ T-cells, P<0.01)?
**A.** significantly improved the cells' sensitivity

**Q.** What about the “sensitivity to T-cell killing” value (LNCaP/AR(cs) cells [9]; 30 μM, P<0.01, no significant difference to 10 μM) of the same substance?
**A.** significantly improved the cells' sensitivity

**Q.** And the “proliferation of LNCaP/AR(cs) cells” value (LNCaP/AR(cs) cells [10]; 10 μM)?
**A.** did not inhibit the proliferation

**Q.** And the “inhibition of growth of LNCaP/AR(cs) cells” value (LNCaP/AR(cs) cells [10]; 30 μM)?
**A.** 50%

**Q.** What about the “viability of LNCaP/AR(cs) cells” value (LNCaP/AR(cs) cells [10]; 30 μM) of the same substance?
**A.** no effect on the cells' viability

**Q.** And the “osteoprotegerin (OPG) gene down-regulated” value [11]?
**A.** ~25 fold

From patent US20170306042A1, “IMMUNOGENIC MODULATION BY ENDOCRINE DEPRIVATION THERAPY IMPROVES SENSITIVITY OF TUMOR CELLS TO IMMUNE MEDIATED LYSIS” (The United States of America, as represented by the …, priority 2014, published 2017)
